Test results taken from ChEMBL document CHEMBL4433250, “Structure-based design of potent linear peptide inhibitors of the YAP-TEAD protein-protein interaction derived from the YAP omega-loop sequence” (Bioorg Med Chem Lett, 2019).
The source made the active and inactive calls. No cut-off for these calls is given here. Where a SMILES comes first, the peptide text is derived from it. [ ]: non-standard residue; d: D form. Trp(6-Cl) = N[C@@H](Cc1c[nH]c2cc(Cl)ccc12)C(=O)O; Phe(3-F) = N[C@@H](Cc1cccc(F)c1)C(=O)O; 1Nal = N[C@@H](Cc1cccc2ccccc12)C(=O)O; Hyp = O=C(O)[C@@H]1C[C@@H](O)CN1; Cba = N[C@@H](CC1CCC1)C(=O)O; Nle = CCCC[C@H](N)C(=O)O; Ac3c = NC1(C(=O)O)CC1

Assays:
[1] = molecular target: T1, Transcriptional enhancer factor TEF-3 (Homo sapiens, UniProt Q15561); test: Inhibition of human TEAD4 (217 to 434 residues) expressed in Escherichia coli BL21 (DE3) interaction with N-biotinylated YAP (60 to 100 residues) incubated for 2 hrs by TR-FRET assay
[2] = molecular target: T1, Transcriptional enhancer factor TEF-3; test: Inhibition of TEAD4 in human SF268 ::MCAT-Luc RGA model cells up to 20 uM by YAP/TEAD-dependent luciferase reporter gene assay
[3] = molecular target: T1, Transcriptional enhancer factor TEF-3; test: Binding affinity to Avi-tagged human TEAD4 (217 to 434 residues) expressed in Escherichia coli BL21 (DE3) by SPR assay

T1 sequence (Q15561 whole entry, the tested form may be a part): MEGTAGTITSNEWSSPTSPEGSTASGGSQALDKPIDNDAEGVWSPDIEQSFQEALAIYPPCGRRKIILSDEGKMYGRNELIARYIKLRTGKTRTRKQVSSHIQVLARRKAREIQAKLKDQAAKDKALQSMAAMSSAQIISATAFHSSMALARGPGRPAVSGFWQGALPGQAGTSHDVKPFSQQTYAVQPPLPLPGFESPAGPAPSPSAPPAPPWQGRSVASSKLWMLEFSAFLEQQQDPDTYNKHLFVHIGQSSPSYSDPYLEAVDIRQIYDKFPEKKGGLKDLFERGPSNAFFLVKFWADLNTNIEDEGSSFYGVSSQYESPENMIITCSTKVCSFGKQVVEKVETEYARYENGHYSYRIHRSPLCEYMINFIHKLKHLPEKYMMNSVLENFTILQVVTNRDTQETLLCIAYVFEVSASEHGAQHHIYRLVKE

Row | Molecule | IC50 [1] | inhibition [2] | Kd [3]
1 | H-PMRLRKLPDSFFKPP-OH | 70000 nM | – | –
2 | N=C(N)NCCC[C@H](NC(=O)[C@H](Cc1c[nH]c2cc(Cl)ccc12)NC(=O)[C@@H]1CCCN1)C(=O)NC1(C(=O)N[C@@H](CCCNC(=N)N)C(=O)N[C@@H](CCCCN)C(=O)N[C@@H](CC2CCC2)C(=O)N2C[C@H](O)C[C@H]2C(=O)N[C@@H](CC(=O)O)C(=O)N[C@@H](CO)C(=O)N[C@@H](Cc2ccccc2)C(=O)N[C@@H](Cc2cccc3ccccc23)C(=O)N[C@@H](CCCCN)C(=O)N[C@@H](CCC(=O)O)C(=O)N2CCC[C@H]2C(=O)O)CC1 (H-P[Trp(6-Cl)]R[Ac3c]RK[Cba][Hyp]DSF[1Nal]KEP-OH) | 9 nM | – | –
3 | CCCC[C@H](NC(=O)[C@H](CCCCN)NC(=O)[C@H](CCCNC(=N)N)NC(=O)[C@H](CC(C)C)NC(=O)[C@H](CCCNC(=N)N)NC(=O)[C@H](Cc1c[nH]c2cc(Cl)ccc12)NC(=O)[C@@H]1CCCN1)C(=O)N1CCC[C@H]1C(=O)N[C@@H](CC(=O)O)C(=O)N[C@@H](CO)C(=O)N[C@@H](Cc1cccc(F)c1)C(=O)N[C@@H](Cc1ccccc1)C(=O)N[C@@H](CCCCN)C(=O)N1CCC[C@H]1C(=O)N1CCC[C@H]1C(=O)O (H-P[Trp(6-Cl)]RLRK[Nle]PDS[Phe(3-F)]FKPP-OH) | 2400 nM | – | –
4 | CC(C)C[C@H](NC(=O)[C@H](CCCNC(=N)N)NC(=O)[C@H](Cc1c[nH]c2cc(Cl)ccc12)NC(=O)[C@@H]1CCCN1)C(=O)N[C@@H](CCCNC(=N)N)C(=O)N[C@@H](CCCCN)C(=O)N[C@@H](CC1CCC1)C(=O)N1CCC[C@H]1C(=O)N[C@@H](CC(=O)O)C(=O)N[C@@H](CO)C(=O)N[C@@H](Cc1ccccc1)C(=O)N[C@@H](Cc1cccc2ccccc12)C(=O)N[C@@H](CCCCN)C(=O)N[C@@H](CCC(=O)O)C(=O)N1CCC[C@H]1C(=O)O (H-P[Trp(6-Cl)]RLRK[Cba]PDSF[1Nal]KEP-OH) | 45 nM | – | –
5 | CCCC[C@H](NC(=O)[C@@H]1CCCN1)C(=O)N[C@@H](CCCNC(=N)N)C(=O)N[C@@H](CC(C)C)C(=O)N[C@@H](CCCNC(=N)N)C(=O)N[C@@H](CCCCN)C(=O)N[C@@H](CC(C)C)C(=O)N1CCC[C@H]1C(=O)N[C@@H](CC(=O)O)C(=O)N[C@@H](CO)C(=O)N[C@@H](Cc1ccccc1)C(=O)N[C@@H](Cc1ccccc1)C(=O)N[C@@H](CCCCN)C(=O)N1CCC[C@H]1C(=O)N1CCC[C@H]1C(=O)O (H-P[Nle]RLRKLPDSFFKPP-OH) | 67700 nM | – | –
6 | CC(C)C[C@H](NC(=O)[C@H](CCCNC(=N)N)NC(=O)[C@H](Cc1c[nH]c2cc(Cl)ccc12)NC(=O)[C@@H]1CCCN1)C(=O)N[C@@H](CCCNC(=N)N)C(=O)N[C@@H](CCCCN)C(=O)N[C@@H](CC1CCC1)C(=O)N1C[C@H](O)C[C@H]1C(=O)N[C@@H](CC(=O)O)C(=O)N[C@@H](CO)C(=O)N[C@@H](Cc1ccccc1)C(=O)N[C@@H](Cc1cccc2ccccc12)C(=O)N[C@@H](CCCCN)C(=O)N[C@@H](CCC(=O)O)C(=O)N1CCC[C@H]1C(=O)O (H-P[Trp(6-Cl)]RLRK[Cba][Hyp]DSF[1Nal]KEP-OH) | 16 nM | inactive | 25 nM
7 | CCCC[C@H](NC(=O)[C@H](CCCCN)NC(=O)[C@H](CCCNC(=N)N)NC(=O)[C@H](CC(C)C)NC(=O)[C@H](CCCNC(=N)N)NC(=O)[C@H](Cc1c[nH]c2cc(Cl)ccc12)NC(=O)[C@@H]1CCCN1)C(=O)N1CCC[C@H]1C(=O)N[C@@H](CC(=O)O)C(=O)N[C@@H](CO)C(=O)N[C@@H](Cc1ccccc1)C(=O)N[C@@H](Cc1ccccc1)C(=O)N[C@@H](CCCCN)C(=O)N1CCC[C@H]1C(=O)N1CCC[C@H]1C(=O)O (H-P[Trp(6-Cl)]RLRK[Nle]PDSFFKPP-OH) | 1560 nM | – | –
8 | CC(C)C[C@H](NC(=O)[C@H](CCCNC(=N)N)NC(=O)[C@H](Cc1c[nH]c2cc(Cl)ccc12)NC(=O)[C@@H]1CCCN1)C(=O)N[C@@H](CCCNC(=N)N)C(=O)N[C@@H](CCCCN)C(=O)N[C@@H](CC1CCC1)C(=O)N1CCC[C@H]1C(=O)N[C@@H](CC(=O)O)C(=O)N[C@@H](CO)C(=O)N[C@@H](Cc1ccccc1)C(=O)N[C@@H](Cc1cccc2ccccc12)C(=O)N[C@@H](CCCCN)C(=O)N1CCC[C@H]1C(=O)N1CCC[C@H]1C(=O)O (H-P[Trp(6-Cl)]RLRK[Cba]PDSF[1Nal]KPP-OH) | 216 nM | – | –
9 | CCCC[C@H](NC(=O)[C@H](CCCCN)NC(=O)[C@H](CCCNC(=N)N)NC(=O)[C@H](CC(C)C)NC(=O)[C@H](CCCNC(=N)N)NC(=O)[C@H](Cc1c[nH]c2cc(Cl)ccc12)NC(=O)[C@@H]1CCCN1)C(=O)N1CCC[C@H]1C(=O)N[C@@H](CC(=O)O)C(=O)N[C@@H](CO)C(=O)N[C@@H](Cc1ccccc1)C(=O)N[C@@H](Cc1cccc2ccccc12)C(=O)N[C@@H](CCCCN)C(=O)N1CCC[C@H]1C(=O)N1CCC[C@H]1C(=O)O (H-P[Trp(6-Cl)]RLRK[Nle]PDSF[1Nal]KPP-OH) | 409 nM | – | –
10 | CC(C)C[C@H](NC(=O)[C@H](CCCNC(=N)N)NC(=O)[C@H](Cc1c[nH]c2cc(Cl)ccc12)NC(=O)[C@@H]1CCCN1)C(=O)N[C@@H](CCCNC(=N)N)C(=O)N[C@@H](CCCCN)C(=O)N[C@@H](CC(C)C)C(=O)N1CCC[C@H]1C(=O)N[C@@H](CC(=O)O)C(=O)N[C@@H](CO)C(=O)N[C@@H](Cc1ccccc1)C(=O)N[C@@H](Cc1ccccc1)C(=O)N[C@@H](CCCCN)C(=O)N1CCC[C@H]1C(=O)N1CCC[C@H]1C(=O)O (H-P[Trp(6-Cl)]RLRKLPDSFFKPP-OH) | 5830 nM | – | –
11 | H-PWRLRKLPDSFFKPP-OH | 24200 nM | – | –
